We go through two compounds from patent US20220175761A1, “BI-LIGAND DRUG CONJUGATE AND USE THEREOF” (COHERENT BIOPHARMA (SUZHOU), LIMITED, priority 2019, published 2022).

Experiment [1] deals with CFPAC-1 (human pancreatic cancer cells). Briefly: Inhibition of cell line proliferation, CCK8. It is filed as cell-based. Particulars: CFPAC-1, 68-72 hours, CCK8. The method, then:
Experimental operations: PANC-1 and CFPAC-1 cells were prepared in advance, counted, and plated in 96-well cell culture plates at a cell density of 4×10^4 cells/ml (100 μl/well); negative control and blank control wells were set on each plate. After adherent cell culture overnight, the diluted samples to be tested were added at 50 μl/well. The plates were placed in an incubator at 37° C., 5% CO2 and cultured for 68-72 hours. To each well, 15 μl (10% of the liquid volume in a well) of a color developing solution from CCK8 was added; and the plates were incubated at 37° C. for 45-70 minutes and each plate was read at 450 nm on a microplate reader. The data was edited using SoftMax Pro and a 4-P fitting curve was plotted.
(§1) Experimental operations: LNCaP, SK-BR-3, NCI-H226, CFPAC-1 and PANC-1 cells were prepared in advance and counted; with a culture medium (IMDM+10% FBS+1× L-Glutamine+1×P/S), the cells LNCaP, SK-BR-3 and CFPAC-1 were diluted to 4×10^4 cells/ml, NCI-H226 was diluted to 2.0×10^4 cells/ml and PANC-1 was diluted to 3.0×10^4 cells/ml; the diluted cell solution was plated in 96-well plates at 100 μl/well; and negative control and blank control wells were set on each plate. After adherent cell culture overnight, the diluted samples to be tested were added at 50 μl/well. The plates were placed in an incubator at 37° C., 5% CO2 and cultured for 68-72 hours. To each well, 15 μl (10% of the liquid volume in a well) of a color developing solution from CCK8 was added; and the plates were incubated at 37° C. for 45-70 minutes and each plate was read at 450 nm on a microplate reader. The data was edited using SoftMax Pro and a 4-P fitting curve was plotted.
(§2) Experimental Operations: LNCaP, SK-BR-3, MDA-MB-468 and CFPAC-1 cells were prepared in advance and counted; with a culture medium (IMDM+10% FBS+1× L-Glutamine+1×P/S), the cells LNCaP, SK-BR-3, MDA-MB-468 and CFPAC-1 were diluted to 4×10^4 cells/ml; the diluted cell solution was plated in 96-well plates at 100 µl/well; and negative control and blank control wells were set on each plate. After adherent cell culture overnight, the diluted samples to be tested were added at 50 μl/well. The plates were placed in an incubator at 37° C., 5% CO2 and cultured for 68-72 hours. To each well, 15 μl (10% of the liquid volume in a well) of a color developing solution from CCK8 was added; and the plates were incubated at 37° C. for 45-70 minutes and each plate was read at 450 nm on a microplate reader. The data was edited using SoftMax Pro and a 4-P fitting curve was plotted.
as §2, with “Operations: LNCaP, MDA-MB-468, CFPAC-1 and PANC-1” for “Operations: LNCaP, SK-BR-3, MDA-MB-468 and CFPAC-1”, “CFPAC-1 and PANC-1 cells were” for “MDA-MB-468 and CFPAC-1 cells were”, “cells LNCaP, MDA-MB-468 and” for “cells LNCaP, SK-BR-3, MDA-MB-468 and”, “to 4×10^4 cells/ml, and PANC-1 was diluted to 3.0×10^4 cells/ml; the” for “to 4×10^4 cells/ml; the”, “at 100 μl/well; and negative” for “at 100 µl/well; and negative”
Experimental operations: NCI-H226, CFPAC-1 and MDA-MB-468 cells were prepared in advance and counted; MDA-MB-468 and CFPAC-1 cells were plated at a density of 2×10^4 cells/ml (100 μl/well) and NCI-H226 cells were plated at a density of 1×10^4 cells/ml (100 μl/well) in 96-well plates; and negative control and blank control wells were set on each plate. After adherent cell culture overnight, the diluted samples to be tested were added at 50 μl/well. The plates were placed in an incubator at 37° C., 5% CO2 and cultured for 68-72 hours. […]

The test system of experiment [2] is NCI-H226 (human lung cancer cells). In words: Inhibition of cell line proliferation, CCK8. It is filed as cell-based. Particulars: NCI-H226, 68-72 hours, CCK8. On the procedure:
as §1
(§3) Experimental operations: NCI-H226, CFPAC-1 and MDA-MB-468 cells were prepared in advance and counted; MDA-MB-468 and CFPAC-1 cells were plated at a density of 2×10^4 cells/ml (100 μl/well) and NCI-H226 cells were plated at a density of 1×10^4 cells/ml (100 μl/well) in 96-well plates; and negative control and blank control wells were set on each plate. After adherent cell culture overnight, the diluted samples to be tested were added at 50 μl/well. The plates were placed in an incubator at 37° C., 5% CO2 and cultured for 68-72 hours. To each well, 15 μl (10% of the liquid volume in a well) of a color developing solution from CCK8 was added; and the plates were incubated at 37° C. for 45-70 minutes and each plate was read at 450 nm on a microplate reader. The data was edited using SoftMax Pro and a 4-P fitting curve was plotted.

Experiment [3] concerns MDA-MB-468 (human breast cancer cells). In words: Inhibition of cell line proliferation, CCK8. It is filed as cell-based. Particulars: MDA-MB-468, 68-72 hours, CCK8. On the procedure:
as §2
as §2, with “Operations: LNCaP, MDA-MB-468, CFPAC-1 and PANC-1” for “Operations: LNCaP, SK-BR-3, MDA-MB-468 and CFPAC-1”, “CFPAC-1 and PANC-1 cells were” for “MDA-MB-468 and CFPAC-1 cells were”, “cells LNCaP, MDA-MB-468 and” for “cells LNCaP, SK-BR-3, MDA-MB-468 and”, “to 4×10^4 cells/ml, and PANC-1 was diluted to 3.0×10^4 cells/ml; the” for “to 4×10^4 cells/ml; the”, “at 100 μl/well; and negative” for “at 100 µl/well; and negative”
as §3

For the next experiment, the system named is CALU-3. Briefly: Tumor growth inhibition of CR19428 in subcutaneous xenograft model (CDX). It is filed as in vivo, BALB/c-nude mice. On the procedure: (§4) Experimental scheme: The tumor tissue mass were prepared and subcutaneously inoculated into the anterior right flank of BALB/c-nude mice. When the tumor volume expanded to 80-160 mm^3, a randomized grouping was performed, and a model control group and administration groups were set. The mice were administrated from the first day of grouping, wherein the administration dose was adjusted according to the latest weight measurement. The mice were administrated via tail vein injection at an administration volume of 10 μl/g and twice a week for consecutive 3 weeks. After grouping and administration, the effects of tumor growth and treatment on normal behaviors of animals, specifically including the activity of experimental animals, food intake and drinking status, weight gain or loss status, and other abnormal conditions in eyes, hair, etc., were monitored. After grouping and administration, the weight of mice was measured twice a week to calculate the rate of weight change; at the same time, the long diameter and short diameter of the tumor were measured with a vernier caliper, and the tumor volume, relative tumor proliferation rate, tumor volume inhibition rate and other indicators were calculated. The formula of tumor volume is TV=0.5 a×b^2, wherein a is the long diameter of a tumor and b is the short diameter of a tumor.

In another experiment the test system is SCLC-21H. Described as above. It is filed as in vivo, BALB/c-nude mice. On the procedure: as §4
A further experiment relates to SPC-A1. Described as above. Particulars: for TGI: SPC-Al. The experiment is classed as in vivo, BALB/c-nude mice. The method, then: as §4
Experiment [4] deals with LNCaP human prostate cancer cells. In words: Cell binding and endocytosis by flow cytometry. The experiment is classed as cell-based. Particulars: 8 nmol/L, 37° C., 15-90 minutes, compared with DU145 and NCI-H460. The method, then: (§5) Sample information: Cy5-pep-20AK and Cy5-pep-20BK Cell lines: LNCaP human prostate cancer cells, Du145 human prostate cancer cells, SKOV3 human ovarian cancer cells and NCI-H460 human lung cancer cells
(§6) (1) Cell culture: the cells were digested with trypsin, collected and counted, and then the cells were added to several culture flasks containing a complete medium; the culture flasks were placed in an incubator at 37° C., 5% CO2 for culturing the cells, and finally about 5×10^6 cells were collected into a centrifuge tube. […]
(§7) (3) Washing and loading: the working solution was removed by centrifugation at 1000 rpm for 5 minutes, and the cells were washed 3 times with PBS, and an appropriate amount of PBS was added to suspend the cells to 1×10^6 cells/ml; Beckman CytoFLEX flow cytometer was turned on in advance to complete the startup cleaning process; and the cell samples were loaded successively, and the fluorescence of 10,000 living cells was read in the APC channel; all operations were performed avoiding light exposure.
(§8) (4) Data analysis: the absolute MFI (mean fluorescence intensity) of the APC fluorescence of each cell sample and the relative MFI of the relative blank control were obtained, and a data line graph was completed according to the relative MFI.
Background: Flow cytometry measures light scatter and fluorescence of single cells or particles in a stream.

The subject of experiment [5] is SKOV3 human ovarian cancer cells. In words: Cell binding and endocytosis by flow cytometry. The experiment is classed as cell-based. Particulars: 8 nmol/L, 37° C., 15-90 minutes, compared with DU145 and NCI-H460. On the procedure: as §5, §6, §7, §8

`CC[C@@]1(O)C(=O)OCc2c1cc1n(c2=O)Cc2c-1nc1cc(F)c(C)c3c1c2[C@@H](NC(=O)COCNC(=O)CNC(=O)[C@H](Cc1ccccc1)NC(=O)CNC(=O)CNC(=O)CCCCCN1C(=O)CC(SC[C@H](NC(=O)[C@H](CCCCN)NC(=O)[C@H](CC(=O)O)NC(=O)[C@H](CC(=O)O)NC(=O)Cc2ccc(CNC(=O)NCCCC[C@H](NC(=O)N[C@@H](CCC(=O)O)C(=O)O)C(=O)O)cc2)C(=O)N[C@@H](CCCCNC(=O)CC[C@H](NC(=O)c2ccc(NCc4cnc5[nH]c(N)nc(=O)c5n4)cc2)C(=O)O)C(N)=O)C1=O)CC3` (stereo partly drawn) [CR19428]: the IC50 (commonly the midpoint of a concentration-inhibition curve) in experiment [1] is 906 nM; in experiment [2] it was 1620 nM; in experiment [3], 1070 nM. In addition, the inhibition of tumour growth (TGI) (in general, how far tumour growth fell short of that in controls) was found to be 51% in the experiment on CALU-3 (CALU-3, 50 mg/kg q2/w * 3); 66% in the experiment with SCLC-21H (SCLC-21H, 50 mg/kg q2/w * 3); 75% in the experiment on SPC-A1 (50 mg/kg q2/w * 3); 91% in the experiment with SPC-A1 (100 mg/kg q2/w * 3). Besides, the “anti-tumor growth effect (in words)” value in the experiment on CALU-3 (CALU-3 CDX), in the experiment with SCLC-21H (SCLC-21H CDX) and in the experiment on SPC-A1 (SPC-A1 CDX) was “obvious anti-tumor growth effect” in each case.

Regarding `CC1(C)C(/C=C/C=C/C=C2\N(CCCCCC(=O)NCCCCC(NC(=O)[C@H](CCCCN)NC(=O)[C@H](CC(=O)O)NC(=O)[C@H](CC(=O)O)NC(=O)Cc3ccc(CNC(=O)NCCCC[C@H](NC(=O)N[C@@H](CCC(=O)O)C(=O)O)C(=O)O)cc3)C(N)=O)c3ccc(S(=O)(=O)[O-])cc3C2(C)C)=[N+](CCCS(=O)(=O)O)c2ccc(S(=O)(=O)O)cc21` (stereo partly drawn) [Cy5-pep-20AK], the “binding and endocytosis (fluorescence intensity)” value in experiment [4] was “high level of binding and endocytosis”; in experiment [5], “moderate level of binding and endocytosis”.
